Patent US20260053811A1, “METHODS OF TREATING HYPERTENSION IN OBESE SUBJECTS” (Mineralys Therapeutics, Inc., priority 2022, published 2026)

Tested on: 11-deoxycorticosterone
Assay: Serum 11-deoxycorticosterone (pharmacodynamic response)
Format: in vivo, human
Conditions: for 11-Deoxycorticosterone, Mean (SD) Observed / 11-Deoxycorticosterone, Mean (SD) Percent Change from Baseline: Part 1; for 11-Deoxycorticosterone, Mean Observed / 11-Deoxycorticosterone, Mean Percent Change from Baseline: Part 2
Text: PK/PD Analysis Set includes all subjects in the SAF who have sufficient data available for the analysis of pharmacokinetic and pharmacodynamic measurements. In the analyses based on PKPD, subjects will be analyzed according to the actual treatment received.

CC(=O)N[C@H]1CC[C@H](NC(=O)CN2CCN(c3nncc(-c4ccc(C)cc4)n3)CC2)CC1 [Compound A HBr]
11-Deoxycorticosterone, Mean (SD) Observed (Wk 4, 12.5 mg BID): 9.0 (3.0) ng/dL | 11-Deoxycorticosterone, Mean (SD) Percent Change from Baseline (Wk 4, 12.5 mg BID): 12.50 (37.50) % | 11-Deoxycorticosterone, Mean (SD) Observed (Wk 4, 12.5 mg QD): 11.1 (5.5) ng/dL | 11-Deoxycorticosterone, Mean (SD) Percent Change from Baseline (Wk 4, 12.5 mg QD): 31.41 (60.95) % | 11-Deoxycorticosterone, Mean (SD) Observed (Wk 4, 25 mg BID): 13.7 (13.9) ng/dL | 11-Deoxycorticosterone, Mean (SD) Percent Change from Baseline (Wk 4, 25 mg BID): 71.63 (173.69) % | 11-Deoxycorticosterone, Mean (SD) Observed (Wk 4, 50 mg QD): 8.0 (0.0) ng/dL | 11-Deoxycorticosterone, Mean (SD) Percent Change from Baseline (Wk 4, 50 mg QD): −2.66 (9.61) % | 11-Deoxycorticosterone, Mean (SD) Observed (Wk 4, 100 mg QD): 9.5 (5.2) ng/dL | 11-Deoxycorticosterone, Mean (SD) Percent Change from Baseline (Wk 4, 100 mg QD): 16.18 (66.37) % | 11-Deoxycorticosterone, Mean (SD) Observed (Wk 12, 12.5 mg BID): 8.0 (0.0) ng/dL | 11-Deoxycorticosterone, Mean (SD) Percent Change from Baseline (Wk 12, 12.5 mg BID): 0.00 (0.00) % | 11-Deoxycorticosterone, Mean (SD) Observed (Wk 12, 12.5 mg QD): 9.2 (4.9) ng/dL | 11-Deoxycorticosterone, Mean (SD) Percent Change from Baseline (Wk 12, 12.5 mg QD): 11.96 (62.37) % | 11-Deoxycorticosterone, Mean (SD) Observed (Wk 12, 25 mg BID): 8.0 (0.0) ng/dL | 11-Deoxycorticosterone, Mean (SD) Percent Change from Baseline (Wk 12, 25 mg BID): 0.00 (0.00) % | 11-Deoxycorticosterone, Mean (SD) Observed (Wk 12, 50 mg QD): 8.5 (2.4) ng/dL | 11-Deoxycorticosterone, Mean (SD) Percent Change from Baseline (Wk 12, 50 mg QD): 3.01 (31.53) % | 11-Deoxycorticosterone, Mean (SD) Observed (Wk 12, 100 mg QD): 8.4 (2.0) ng/dL | 11-Deoxycorticosterone, Mean (SD) Percent Change from Baseline (Wk 12, 100 mg QD): 2.80 (28.58) % | 11-deoxycorticosterone compared with placebo (Part 1 active treatment arms, Week 4): Transient increases | 11-Deoxycorticosterone, Mean Observed (Wk 4, 100 mg QD): 10.28 ng/dL | 11-Deoxycorticosterone, Mean Percent Change from Baseline (Wk 4, 100 mg QD): 6.02% | 11-Deoxycorticosterone, Mean Observed (Wk 10, 100 mg QD): 8.00 ng/dL | 11-Deoxycorticosterone, Mean Percent Change from Baseline (Wk 10, 100 mg QD): −8.78% | 11-deoxycorticosterone levels (summary of trial): unaffected
